In ChEMBL document CHEMBL3132797, “Synthesis and biological evaluation of substituted N-alkylphenyl-3,5-dinitrobenzamide analogs as anti-TB agents” (Medchemcomm, 2014):
Values after ≈ are worked out from the molar mass of the structure shown.

Assays:
Type in all cases: functional
[1] = tested on: Mycobacterium tuberculosis; test: Antimycobacterial activity against rifampicin-resistant Mycobacterium tuberculosis clinical isolates by broth dilution method
[2] = tested on: Mycobacterium tuberculosis; test: Antimycobacterial activity against isoniazid-resistant Mycobacterium tuberculosis clinical isolates by broth dilution method
[3] = tested on: Mycobacterium tuberculosis; test: Antimycobacterial activity against multidrug-resistant Mycobacterium tuberculosis clinical isolates by broth dilution method

Structure (SMILES): C[C@@H](NC(=O)c1cc([N+](=O)[O-])cc([N+](=O)[O-])c1)c1ccccc1
- MIC [1]: < 0.047 µM
- MIC [2]: 0.79 µM (≈ 0.249 µg/mL)
- MIC [3]: 12.7 µM (≈ 4 µg/mL)

Structure (SMILES): O=C(NCCc1ccccc1)c1cc([N+](=O)[O-])cc([N+](=O)[O-])c1
- MIC [1]: < 0.19 µM
- MIC [2]: 0.795 µM (≈ 0.251 µg/mL)
- MIC [3]: > 12.7 µM

Structure (SMILES): O=C(Nc1ccc(F)cc1)c1cc([N+](=O)[O-])cc([N+](=O)[O-])c1
- MIC [1]: 13 µM (≈ 3.98 µg/mL)

Structure (SMILES): O=C(Nc1ccccc1F)c1cc([N+](=O)[O-])cc([N+](=O)[O-])c1
- MIC [1]: 13 µM (≈ 3.98 µg/mL)

Structure (SMILES): O=C(Nc1cc(Cl)cc(Cl)c1)c1cc([N+](=O)[O-])cc([N+](=O)[O-])c1
- MIC [1]: 45.1 µM (≈ 16.1 µg/mL)

Structure (SMILES): N#Cc1ccccc1NC(=O)c1cc([N+](=O)[O-])cc([N+](=O)[O-])c1
- MIC [1]: 3.2 µM (≈ 0.999 µg/mL)

Structure (SMILES): COc1ccc(CCNC(=O)c2cc([N+](=O)[O-])cc([N+](=O)[O-])c2)cc1
- MIC [1]: < 0.17 µM

Structure (SMILES): CCCCC(CC)CNC(=O)c1cc([N+](=O)[O-])cc([N+](=O)[O-])c1 (stereo not drawn)
- MIC [1]: < 0.19 µM

Structure (SMILES): O=C(NC1CCCC1)c1cc([N+](=O)[O-])cc([N+](=O)[O-])c1
- MIC [1]: 0.9 µM (≈ 0.251 µg/mL)

Structure (SMILES): Cc1c([N+](=O)[O-])cc(C(=O)NCc2ccccc2)cc1[N+](=O)[O-]
- MIC [1]: 3.17 µM (≈ 0.999 µg/mL)

Structure (SMILES): Cc1ccc([C@@H](C)NC(=O)c2cc([N+](=O)[O-])c(C)c([N+](=O)[O-])c2)cc1
- MIC [1]: < 0.04 µM
- MIC [2]: 0.35 µM (≈ 0.12 µg/mL)
- MIC [3]: 0.35 µM (≈ 0.12 µg/mL)

Structure (SMILES): Cc1c([N+](=O)[O-])cc(C(=O)N[C@H](C)c2ccc(F)cc2)cc1[N+](=O)[O-]
- MIC [1]: 11.5 µM (≈ 4 µg/mL)
- MIC [2]: 11.5 µM (≈ 4 µg/mL)
- MIC [3]: 5.76 µM (≈ 2 µg/mL)

Structure (SMILES): Cc1c([N+](=O)[O-])cc(C(=O)N[C@@H](C)c2ccc(F)cc2)cc1[N+](=O)[O-]
- MIC [1]: < 0.04 µM
- MIC [2]: 0.72 µM (≈ 0.25 µg/mL)
- MIC [3]: 0.72 µM (≈ 0.25 µg/mL)

Structure (SMILES): Cc1ccc([C@@H](C)NC(=O)c2cc([N+](=O)[O-])cc([N+](=O)[O-])c2)cc1
- MIC [1]: < 0.05 µM
- MIC [2]: < 0.05 µM
- MIC [3]: 12.2 µM (≈ 4 µg/mL)

Structure (SMILES): CC(C)c1ccc(NC(=O)c2cc([N+](=O)[O-])cc([N+](=O)[O-])c2)cc1
- MIC [1]: 48.6 µM (≈ 16 µg/mL)

Structure (SMILES): Cc1ccc(C(C)NC(=O)c2cc([N+](=O)[O-])c(C)c([N+](=O)[O-])c2)cc1 (racemic)
- MIC [1]: < 0.17 µM

Structure (SMILES): CC[C@@H](CO)NCCN[C@@H](CC)CO [ETHAMBUTOL]
- MIC [3]: 16 µM (≈ 3.27 µg/mL)

Structure (SMILES): NNC(=O)c1ccncc1 [ISONIAZID]
- MIC [2]: 64 µM (≈ 8.78 µg/mL)
- MIC [3]: 16 µM (≈ 2.19 µg/mL)

Structure (SMILES): CO[C@H]1/C=C/O[C@@]2(C)Oc3c(C)c(O)c4c(O)c(c(/C=N/N5CCN(C)CC5)c(O)c4c3C2=O)NC(=O)/C(C)=C\C=C\[C@H](C)[C@H](O)[C@@H](C)[C@@H](O)[C@@H](C)[C@H](OC(C)=O)[C@@H]1C [RIFAMPIN]
- MIC [1]: 256 µM (≈ 211 µg/mL)
- MIC [3]: 64 µM (≈ 52.7 µg/mL)
